In ChEMBL document CHEMBL5113522, “Discovery of CH7057288 as an Orally Bioavailable, Selective, and Potent pan-TRK Inhibitor” (J Med Chem, 2022):

Columns and labels:
[1] = biological target: High affinity nerve growth factor receptor (Homo sapiens, UniProt P04629); experiment: Inhibition of TRKA (unknown origin)
CYP3A4 = CYP3A4 (Homo sapiens, UniProt P08684); experiment: Induction of CYP3A4 in human hepatocytes assessed as fold induction at 1 uM using testosterone as substrate preincubated with replacement of fresh medium containing compound every 24 hrs for 72 hrs followed by substrate addition and measured after 1 hr by LC-MS/MS analysis relative to control; type: ADME, cell-based, Hepatocyte; conditions: probe testosterone, time 73 hrs, read-out: FC
NIH3T3 = experiment: Antiproliferative activity against […] NIH3T3 cells expressing MPRIP-NTRK1 assessed as cell growth inhibition incubated for 4 to 7 days by CellTiter-Glo Luminescent Cell Viability Assay; type: functional, cell-based; conditions: Mus musculus
[2] = biological target: Tyrosine-protein kinase Lck (Homo sapiens, UniProt P06239); experiment: Inhibition of LCK (unknown origin)
[3] = biological target: Vascular endothelial growth factor receptor 2 (Homo sapiens, UniProt P35968); experiment: Inhibition of KDR (unknown origin)
Vascular endothelial growth factor receptor 2, sequence (P35968 whole entry): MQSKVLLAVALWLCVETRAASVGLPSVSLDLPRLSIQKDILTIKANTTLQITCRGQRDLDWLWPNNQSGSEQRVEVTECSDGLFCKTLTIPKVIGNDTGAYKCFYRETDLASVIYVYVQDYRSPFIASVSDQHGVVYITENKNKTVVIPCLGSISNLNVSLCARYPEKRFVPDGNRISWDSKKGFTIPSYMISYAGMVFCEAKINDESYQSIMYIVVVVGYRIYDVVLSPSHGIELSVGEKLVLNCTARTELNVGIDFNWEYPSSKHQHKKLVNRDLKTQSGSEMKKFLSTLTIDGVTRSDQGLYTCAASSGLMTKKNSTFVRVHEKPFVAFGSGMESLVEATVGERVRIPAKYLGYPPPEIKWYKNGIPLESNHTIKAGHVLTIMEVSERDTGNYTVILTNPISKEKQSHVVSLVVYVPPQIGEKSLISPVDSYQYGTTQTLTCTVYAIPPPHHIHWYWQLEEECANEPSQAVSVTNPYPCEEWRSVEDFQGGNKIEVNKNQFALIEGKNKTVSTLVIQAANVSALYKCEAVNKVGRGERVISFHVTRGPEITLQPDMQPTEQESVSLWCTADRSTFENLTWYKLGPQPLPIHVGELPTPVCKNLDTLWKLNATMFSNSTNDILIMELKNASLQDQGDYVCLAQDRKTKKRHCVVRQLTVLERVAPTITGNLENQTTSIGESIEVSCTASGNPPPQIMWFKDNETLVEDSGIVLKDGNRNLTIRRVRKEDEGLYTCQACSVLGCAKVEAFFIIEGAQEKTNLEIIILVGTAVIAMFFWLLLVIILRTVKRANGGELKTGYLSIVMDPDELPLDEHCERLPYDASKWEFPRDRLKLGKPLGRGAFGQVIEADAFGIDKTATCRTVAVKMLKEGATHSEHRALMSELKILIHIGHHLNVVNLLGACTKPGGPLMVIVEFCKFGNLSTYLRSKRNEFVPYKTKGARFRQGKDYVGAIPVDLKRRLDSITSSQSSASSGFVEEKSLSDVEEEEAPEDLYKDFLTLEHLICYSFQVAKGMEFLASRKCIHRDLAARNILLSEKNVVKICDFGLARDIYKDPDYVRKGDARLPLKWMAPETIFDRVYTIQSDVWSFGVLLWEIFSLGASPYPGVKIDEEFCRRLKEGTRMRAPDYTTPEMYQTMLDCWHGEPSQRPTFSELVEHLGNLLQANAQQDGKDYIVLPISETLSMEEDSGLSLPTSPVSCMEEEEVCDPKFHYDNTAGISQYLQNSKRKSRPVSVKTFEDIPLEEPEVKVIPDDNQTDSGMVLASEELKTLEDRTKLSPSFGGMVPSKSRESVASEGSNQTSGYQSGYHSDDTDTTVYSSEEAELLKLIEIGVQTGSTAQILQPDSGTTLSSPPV

CYP3A4, sequence (P08684 whole entry): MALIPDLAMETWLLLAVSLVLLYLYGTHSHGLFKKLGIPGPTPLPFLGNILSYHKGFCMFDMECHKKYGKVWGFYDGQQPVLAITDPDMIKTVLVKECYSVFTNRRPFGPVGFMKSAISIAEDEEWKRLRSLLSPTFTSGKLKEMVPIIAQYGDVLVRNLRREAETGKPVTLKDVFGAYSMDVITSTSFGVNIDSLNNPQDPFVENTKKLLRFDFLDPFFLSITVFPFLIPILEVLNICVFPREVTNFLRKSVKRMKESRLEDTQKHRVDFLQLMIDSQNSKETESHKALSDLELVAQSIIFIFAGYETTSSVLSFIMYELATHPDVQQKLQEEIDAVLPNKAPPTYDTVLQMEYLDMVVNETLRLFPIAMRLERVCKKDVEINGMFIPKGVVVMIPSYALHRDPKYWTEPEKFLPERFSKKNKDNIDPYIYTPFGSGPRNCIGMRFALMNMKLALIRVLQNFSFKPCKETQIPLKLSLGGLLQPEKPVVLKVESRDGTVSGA
High affinity nerve growth factor receptor, sequence (P04629 whole entry): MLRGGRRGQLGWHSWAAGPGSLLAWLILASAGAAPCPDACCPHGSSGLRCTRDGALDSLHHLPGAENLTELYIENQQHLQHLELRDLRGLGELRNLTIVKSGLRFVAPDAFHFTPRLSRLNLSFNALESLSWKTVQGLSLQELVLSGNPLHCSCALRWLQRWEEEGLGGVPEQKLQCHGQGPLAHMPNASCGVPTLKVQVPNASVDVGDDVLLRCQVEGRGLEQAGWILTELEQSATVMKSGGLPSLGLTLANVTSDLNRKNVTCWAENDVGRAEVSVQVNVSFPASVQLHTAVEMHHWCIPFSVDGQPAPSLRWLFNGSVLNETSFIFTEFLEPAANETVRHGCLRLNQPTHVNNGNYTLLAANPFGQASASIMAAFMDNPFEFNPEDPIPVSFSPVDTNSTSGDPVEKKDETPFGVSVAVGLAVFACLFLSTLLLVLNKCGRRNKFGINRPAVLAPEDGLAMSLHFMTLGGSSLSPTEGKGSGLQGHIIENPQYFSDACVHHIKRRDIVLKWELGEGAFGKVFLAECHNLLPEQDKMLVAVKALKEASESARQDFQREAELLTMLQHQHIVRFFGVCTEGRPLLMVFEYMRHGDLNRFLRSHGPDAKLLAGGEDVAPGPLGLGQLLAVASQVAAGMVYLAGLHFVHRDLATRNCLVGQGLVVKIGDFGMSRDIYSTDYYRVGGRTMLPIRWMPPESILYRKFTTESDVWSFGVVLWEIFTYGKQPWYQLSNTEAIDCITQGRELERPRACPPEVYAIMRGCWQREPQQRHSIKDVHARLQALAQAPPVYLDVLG
Tyrosine-protein kinase Lck, sequence (P06239 whole entry): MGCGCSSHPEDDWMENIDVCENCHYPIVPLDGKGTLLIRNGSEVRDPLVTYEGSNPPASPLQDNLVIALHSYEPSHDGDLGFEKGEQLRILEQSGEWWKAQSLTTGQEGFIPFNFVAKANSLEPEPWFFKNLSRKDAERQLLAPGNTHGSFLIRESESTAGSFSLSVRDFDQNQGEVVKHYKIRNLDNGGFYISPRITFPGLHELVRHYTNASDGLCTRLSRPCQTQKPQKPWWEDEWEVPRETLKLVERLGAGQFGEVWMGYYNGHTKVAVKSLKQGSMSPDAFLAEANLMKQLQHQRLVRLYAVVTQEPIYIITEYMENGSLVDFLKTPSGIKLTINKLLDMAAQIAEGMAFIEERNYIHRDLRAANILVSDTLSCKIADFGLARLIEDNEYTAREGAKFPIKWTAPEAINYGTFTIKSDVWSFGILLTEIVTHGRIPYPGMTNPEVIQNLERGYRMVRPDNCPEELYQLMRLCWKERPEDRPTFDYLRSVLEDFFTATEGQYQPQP

Compound | IC50 [1] [nM] | fold induction at 1 h, 1 µM (CYP3A4) | IC50 (NIH3T3) [nM] | IC50 [2] [nM] | IC50 [3] [nM]
CC1(C)c2cc(N3CC4(COC4)C3)ccc2C(=O)c2c1oc1cc(C#Cc3cc(OCC4CC4)ccn3)ccc21 | 3 | 2.6 | 69 | 86 | 430
CC1(C)c2cc(OCCN3CCCOCC3)ccc2C(=O)c2c1oc1cc(C#Cc3cc(OCC4CC4)ccn3)ccc21 | 2.8 | 6.1 | 80 | 96 | 960
CC1(C)c2cc(OCCN3CCOCC3)ccc2C(=O)c2c1oc1cc(C#Cc3cc(OCC(F)(F)F)ccn3)ccc21 | 3.3 | 6.3 | 21 | 330 | > 1000
CC1(C)c2cc(OCCN3CCOCC3)ccc2C(=O)c2c1oc1cc(C#Cc3cc(OCC4(CO)CC4)ccn3)ccc21 | 3.3 | 7.9 | 184 | 370 | 960
CC1(C)c2cc(OCCN3C4CCC3COC4)ccc2C(=O)c2c1oc1cc(C#Cc3cc(OCC4CC4)ccn3)ccc21 | 18 | 6.7 | 180 | 170 | > 1000
CC1(C)c2cc(OCCN3CCOCC3)ccc2C(=O)c2c1oc1cc(C#Cc3cc(C(=O)NC4CC4)ccn3)ccc21 | 1.3 | 12 | 30 | 180 | > 1000
CC1(C)NC(=O)N(CCOc2ccc3c(c2)C(C)(C)c2oc4cc(C#Cc5cc(OCC6CC6)ccn5)ccc4c2C3=O)C1=O | 13 | 1.9 | 150 | 140 | > 1000
CC1(C)c2cc(N3CCNC(=O)C3)ccc2C(=O)c2c1oc1cc(C#Cc3cc(OCC4CC4)ccn3)ccc21 | 1.4 | 4.2 | 16 | 50 | 290
CC1(C)c2cc(OCCN3CCOCC3)ccc2C(=O)c2c1oc1cc(C#Cc3cc(OCCC4CC4)ccn3)ccc21 | 2 | 6.4 | 530 | 220 | 490
CC1(C)c2cc(OCCN3CCOCC3)ccc2C(=O)c2c1oc1cc(C#Cc3cc(OCC4CCC4)ccn3)ccc21 | 2.7 | 3.1 | 210 | 53 | 171
CC1(COc2ccnc(C#Cc3ccc4c5c(oc4c3)C(C)(C)c3cc(OCCN4CCOCC4)ccc3C5=O)c2)CC1 | 2 | 6.1 | 73 | 160 | 420
CC1(C)c2cc(OCCN3CC4(COC4)C3)ccc2C(=O)c2c1oc1cc(C#Cc3cc(OCC4CC4)ccn3)ccc21 | 4 | 1.4 | 46 | 22 | 500
CC1(C)c2cc(N3CCOCC3)ccc2C(=O)c2c1oc1cc(C#Cc3cc(OCC4CC4)ccn3)ccc21 | 3.4 | 5.4 | 53 | 190 | 690
CC1(C)c2cc(NS(C)(=O)=O)ccc2C(=O)c2c1oc1cc(C#Cc3cc(OCC4CC4)ccn3)ccc21 | 3.9 | 1.2 | 75 | 223 | > 1000
CC1(C)c2cc(OCCN3CCNC(=O)C3)ccc2C(=O)c2c1oc1cc(C#Cc3cc(OCC4CC4)ccn3)ccc21 | 2.1 | 5.2 | 19 | 68 | 413
COCCOc1ccnc(C#Cc2ccc3c4c(oc3c2)C(C)(C)c2cc(OCCN3CCOCC3)ccc2C4=O)c1 | 15 | 6.3 | 130 | 820 | > 1000
CC1(C)c2cc(OCCN3CCOCC3)ccc2C(=O)c2c1oc1cc(C#Cc3cncc(OCC4CC4)c3)ccc21 | 160 |  |  |  | 
